Results as given in patent US9090633B2, “Substituted 4-(arylamino) selenophenopyrimidine compounds and methods of use thereof” (KASINA LAILA INNOVA PHARMACEUTICALS PRIVATE LIMITED, priority 2010, dated 2013).
pIC50: −log10 of the molar value.

Key:
[1] = tested on: human prostate DU145 cells; assay: MTT based cell proliferation assay, DU145; conditions: for pIC50: DU-145, 72 h, read-out: Cell proliferation inhibition in DU145 (Prostate carcinoma), IC50
Description: (§1) MTT [3-(4,5-dimethylthiazol-2-yl)-2,5-diphenyltetrazolium bromide incorporation based cell proliferation assay was performed using standard procedure. […] The assay was carried out according to the instructions provided by the vendor. […] Vehicle control culture wells received only a maximum of 0.5% DMSO. Thereafter, 0.5 mg/ml of MTT reagent was added to each well and the microplate was incubated further for 4 h at 37° C. in presence of 5% CO2. Finally, the cells were solubilized by adding solubilizing solution and allowed to incubate at 37° C. overnight. After complete solubilization of the formazan crystals the absorbance was read at 540 nm in a microplate reader (BioRad, USA).
(§2) The evaluation of cell proliferation inhibitory activities of the compounds was done in two phases—(1) Screening, and (2) half-maximal inhibitory concentration (IC50) determination. In the screening phase, the cells were treated with different concentrations.

[2] = tested on: human Hepatocellular carcinoma HepG2 cells; assay: MTT based cell proliferation assay, HepG2
Description: as §1, §2

[3] = tested on: human cervical carcinoma HeLa cells; assay: MTT based cell proliferation assay, HeLa
Description: as §1, §2

[4] = tested on: human lung carcinoma A549 cells; assay: MTT based cell proliferation assay, A549; conditions: for pIC50: A549, 72 h, read-out: Cell proliferation inhibition in A549 (Lung carcinoma), IC50
Description: as §1, §2

[5] = tested on: human breast carcinoma (estrogen receptor negative) MDA-MB-231 cells; assay: MTT based cell proliferation assay, MDA-MB-231
Description: as §1, §2

[6] = tested on: human colorectal carcinoma HT29 cells; assay: MTT based cell proliferation assay, HT29; conditions: for pIC50: HT-29, 72 h, read-out: Cell proliferation inhibition in HT29 (Colon carcinoma), IC50
Description: as §1, §2

[7] = Homo sapiens, HT-29, read-out: Cell proliferation inhibition in HT29 (Colon carcinoma)
[8] = Homo sapiens, DU-145, read-out: Cell proliferation inhibition in DU145 (Prostate carcinoma)
[9] = Homo sapiens, A549, read-out: Cell proliferation inhibition in A549 (Lung carcinoma)

Fc1ccc(Nc2ncnc3[se]c4c(c23)CCCC4)cc1Cl [Compound 1, (3-chloro-4-fluorophenyl)-5,6,7,8-tetrahydrobenzo[1,2-b]pyrimidino[5,6-d]selenophen-4-ylamine]
pIC50 ([1]; Homo sapiens): 5.08

CN(c1ccc(Cl)cc1)c1ncnc2[se]c3c(c12)CCNC3 [Compound 33]
more potent than Gefitinib (Iressa) in inhibiting tumor cells proliferation ([1]; DU145, from IC50 values): 6.8% | pIC50 ([1]; Homo sapiens): 4.53 | more potent than Gefitinib (Iressa) in inhibiting tumor cells proliferation ([2]; HepG2, from IC50 values): 241% | pIC50 ([2]; Homo sapiens, HepG2, 72 h, read-out: Cell proliferation inhibition (IC50) in HepG2 (Hepatocellular Carcinoma)): 4.98 | pIC50 ([3]; Homo sapiens, 72 h, read-out: Cell proliferation inhibition (IC50) in HeLa (Cervical Carcinoma)): 4.64 | more potent than Gefitinib (Iressa) in inhibiting tumor cells proliferation ([3]; from IC50 values): 117% | more potent than Gefitinib (Iressa) in inhibiting tumor cells proliferation ([4]; A549, from IC50 values): 101% | pIC50 ([4]; Homo sapiens): 4.55 | pIC50 ([5]; Homo sapiens, MDA-MB-231, 72 h, read-out: Cell proliferation inhibition (IC50) in MDA-MB-231 (Breast Carcinoma)): 4.69 | more potent than Gefitinib (Iressa) in inhibiting tumor cells proliferation ([5]; MDA-MB-231, from IC50 values): 122% | more potent than Gefitinib (Iressa) in inhibiting tumor cells proliferation ([6]; HT29, from IC50 values): 257.8% | pIC50 ([6]; Homo sapiens): 4.88

CC(C)(C)c1cc2ncnc(Nc3ccc(F)c(Cl)c3)c2[se]1 [Compound 28, [6-(tert-butyl)selenopheno[2,3-e]pyrimidin-4-yl](3-chloro-4-fluorophenyl)amine]
pIC50 ([1]; Homo sapiens): 4.08 | pIC50 ([4]; Homo sapiens): 3.96 | pIC50 ([6]; Homo sapiens): 4.15

Fc1ccc(Nc2ncnc3c2[se]c2ccccc23)cc1Cl [Compound 30, benzo[d]pyrimidino[5,6-b]selenophen-4-yl(3-chloro-4-fluorophenyl)amine]
pIC50 ([1]; Homo sapiens): 4.57 | pIC50 ([4]; Homo sapiens): 4.66 | inhibition at 25 µM [6, 7]: 38.1%

Clc1cc(Nc2ncnc3[se]c4c(c23)CCCC4)nc(Cl)n1 [Compound 4, (2,6-dichloropyrimidin-4-yl)-5,6,7,8-tetrahydrobenzo[1,2-b]pyrimidino[5,6-d]selenophen-4-ylamine]
pIC50 ([1]; Homo sapiens): 4.43 | pIC50 ([4]; Homo sapiens): 4.37 | pIC50 ([6]; Homo sapiens): 3.79

C#Cc1cccc(Nc2ncnc3[se]c4c(c23)CCNC4)c1 [Compound 21, (3-ethynylphenyl)-5,6,7,8-tetrahydropyrimidino[5′,6′-5,4]selenopheno[2,3-c]pyridine-4-ylamine]
inhibition at 25.575 µM [1, 8]: 12.9% | inhibition at 25.575 µM [4, 9]: 11.6% | inhibition at 25.575 µM [6, 7]: 4.66%

Cc1c(C(N)=O)[se]c2ncnc(Nc3ccc(F)c(Cl)c3)c12 [Compound 17, 4-[(3-chloro-4-fluorophenyl)amino]-5-methylselenopheno[2,3-d]pyrimidine-6-carboxamide]
inhibition at 25 µM [1, 8]: 44.4% | inhibition at 25 µM [4, 9]: 21.4%

COC(=O)c1cc(Nc2ncnc3[se]c4c(c23)CCNC4)c(C)s1 [Compound 23, methyl 5-methyl-4-(5,6,7,8-tetrahydropyrimidino[5′,6′-5,4]selenopheno[2,3-c]pyridin-4-ylamino)thiophene-2-carboxylate]
inhibition at 22.472 µM [1, 8]: 5.08% | inhibition at 22.472 µM [4, 9]: 8.64% | inhibition at 22.472 µM [6, 7]: 15.4%

CS(=O)(=O)N1CCc2c([se]c3ncnc(Nc4ccc(F)c(Cl)c4)c23)C1 [Compound 19, 4[(3-chloro-4-fluorophenyl)amino]-7-(methylsulfonyl)-5,6,7,8-tetrahydro-pyrimidino[5′,4′-5,4]selenopheno[2,3-c]pyridine]
inhibition at 25 µM [1, 8]: 29.2% | inhibition at 25 µM [4, 9]: 27.4% | inhibition at 25 µM [6, 7]: 3.07%

Fc1ccc(Nc2ncnc3c2[se]c2ncccc23)cc1Cl [Compound 31, (3-chloro-4-fluorophenyl)pyrimidino[4′,5′-5,4]selenopheno[2,3-b]pyridin-4-ylamine]
inhibition at 25 µM [1, 8]: 22% | inhibition at 25 µM [4, 9]: 30.2% | inhibition at 25 µM [6, 7]: 5.21%

Brc1cccc(Nc2ncnc3[se]c4c(c23)CCNC4)c1 [Compound 20, (3-bromophenyl)-5,6,7,8-tetrahydropyrimidino[5′,6′-5,4]selenopheno[2,3-c]pyridin-4-ylamine]
inhibition at 22.421 µM [1, 8]: 13.4% | inhibition at 22.421 µM [4, 9]: 0.45% | inhibition at 22.421 µM [6, 7]: 8.96%

Cc1c(C(=O)NCCCl)[se]c2ncnc(Nc3ccc(F)c(Cl)c3)c12 [Compound 25]
pIC50 ([1]; Homo sapiens): 5.07 | inhibition at 19.92 µM [4, 9]: 0.19% | pIC50 ([6]; Homo sapiens): 5.03

Fc1ccc(Nc2ncnc3[se]c4c(c23)CCNC4)cc1Cl [Compound 18, (3-chloro-4-fluorophenyl)-5,6,7,8-tetrahydropyrimidino[5′,6′-5,4]selenopheno[2,3-c]pyridine-4-ylamine]
pIC50 ([1]; Homo sapiens): 4.37 | pIC50 ([4]; Homo sapiens): 4.08 | pIC50 ([6]; Homo sapiens): 4.41

Fc1ccc(Nc2ncnc3c4c([se]c23)CCCC4)cc1Cl [Compound 27, (3-chloro-4-fluorophenyl)-6,7,8,9-tetrahydrobenzo[1,2-d]pyrimidino[5,6-b]selenophen-4-ylamine]
pIC50 ([1]; Homo sapiens): 4.94 | pIC50 ([4]; Homo sapiens): 4.48 | pIC50 ([6]; Homo sapiens): 3.93

Fc1ccc(Nc2ncnc3[se]cc(-c4ccccc4)c23)cc1Cl [Compound 14, (3-chloro-4-fluorophenyl)(5-phenylselenopheno[3,2-e]pyrimidin-4-yl]amine]
pIC50 ([1]; Homo sapiens): 3.98 | pIC50 ([4]; Homo sapiens): 3.92

Fc1ccc(Nc2ncnc3cc(-c4ccccc4)[se]c23)cc1Cl [Compound 29, (3-chloro-4-fluorophenyl)(6-phenylselenopheno[2,3-e]pyrimidin-4-yl)amine]
inhibition at 25 µM [1, 8]: 30.8% | inhibition at 30 µM [4, 9]: 45.5% | inhibition at 25 µM [6, 7]: 43.1%

Cc1[se]c2ncnc(Nc3ccc(F)c(Cl)c3)c2c1-c1ccccc1 [Compound 16]
pIC50 ([1]; Homo sapiens): 3.96 | pIC50 ([4]; Homo sapiens): 4.36 | inhibition at 66.079 µM [6, 7]: 38.6%

CC(C)(C)c1cc(Nc2ncnc3[se]c4c(c23)CCCC4)c(C(N)=O)s1 [Compound 7, (5-tert-butyl)-3-(5,6,7,8-tetrahydrobenzo[1,2-b]pyrimidino[5,6-d]selenophen-4-ylamino)thiophene-2-carboxamide]
pIC50 ([6]; Homo sapiens): 5.03

ethyl 4-[(3-chloro-4-fluorophenyl)amino]-5-methylthioselenopheno[3,4-d]pyrimidine-7-carboxylate [Compound 32]
Cell proliferation inhibition in DU145 (Prostate carcinoma) ([1]; at 25 μM): 9.75% at 25 μM | Cell proliferation inhibition in A549 (Lung carcinoma) ([4]; at 25 μM): 26.1% at 25 μM | Cell proliferation inhibition in HT29 (Colon carcinoma) ([6]; at 25 μM): 12.97% at 25 μM

c1cnc(Nc2ncnc3[se]c4c(c23)CCCC4)cn1 [Compound 5, pyrazin-2-yl-5,6,7,8-tetrahydrobenzo[1,2-b]pyrimidino[5,6-d]selenophen-4-ylamine]
pIC50 ([1]; Homo sapiens): 4.78

Clc1cc(Nc2ncnc3[se]c4c(c23)CCCC4)cc(Cl)n1 [Compound 3, (2,6-dichloropyridin-4-yl)-5,6,7,8-tetrahydrobenzo[1,2-b]pyrimidino[5,6-d]selenophen-4-ylamine]
inhibition at 22.935 µM [1, 8]: 18.3% | inhibition at 22.935 µM [4, 9]: 15.6% | inhibition at 22.935 µM [6, 7]: 13.8%

O=C1CCc2c([se]c3ncnc(Nc4ccc(F)c(Cl)c4)c23)C1 [Compound 26, 4-[(3-chloro-4-fluorophenyl)amino]-5,6,8-trihydrobenzo[2,1-b]pyrimidino[5,4-d]selenophen-7-one]
inhibition at 23.148 µM [1, 8]: 65.1% | inhibition at 23.148 µM [4, 9]: 17.5% | inhibition at 23.148 µM [6, 7]: 30.9%

Cc1c(C(=O)O)[se]c2ncnc(Nc3ccc(F)c(Cl)c3)c12 [Compound 15, 4-[(3-chloro-4-fluorophenyl)amino]-5-methylselenopheno[2,3-d]pyrimidine-6-carboxylic acid]
inhibition at 240.539 µM [1, 8]: 41.2% | inhibition at 240.539 µM [4, 9]: 25% | inhibition at 240.539 µM [6, 7]: 18.9%

Brc1cncc(Nc2ncnc3[se]c4c(c23)CCCC4)c1 [Compound 2, (5-bromo(3-pyridyl))-5,6,7,8-tetrahydrobenzo[1,2-b]pyrimidino[5,6-d]selenophen-4-ylamine]
inhibition at 22.421 µM [1, 8]: 13.1% | inhibition at 22.421 µM [4, 9]: 20.7% | inhibition at 22.421 µM [6, 7]: 11.1%

Brc1cc(Nc2ncnc3[se]c4c(c23)CCCC4)c(Br)s1 [Compound 6]
pIC50 ([1]; Homo sapiens): 4.37 | pIC50 ([4]; Homo sapiens): 4.31 | inhibition at 18.868 µM [6, 7]: 15.5%

Clc1ccc(Nc2ncnc3[se]c4c(c23)CCNC4)cc1Cl [Compound 22, (3,4-dichlorophenyl)-5,6,7,8-tetrahydropyrimidino[5′,6′-5,4]selenopheno[2,3-c]pyridin-4-ylamine]
inhibition at 22.935 µM [1, 8]: 36.6% | inhibition at 22.935 µM [4, 9]: 16.7% | inhibition at 22.935 µM [6, 7]: 28.4%

NS(=O)(=O)c1ccc(Nc2ncnc3[se]c4c(c23)CCCC4)cc1 [Compound 12, 4-(5,6,7,8-tetrahydrobenzo[1,2-b]pyrimidino[5,6-d]selenophen-4-ylamino)benzenesulfonamide]
inhibition at 24.449 µM [6, 7]: 15.6%

CC(C)(C)c1c[se]c2ncnc(Nc3ccc(F)c(Cl)c3)c12 [Compound 13, [5-(tert-butyl)selenopheno[3,2-e]pyrimidin-4-yl](3-chloro-4-fluorophenyl)amine]
pIC50 ([1]; Homo sapiens): 4.38 | pIC50 ([4]; Homo sapiens): 4.82 | pIC50 ([6]; Homo sapiens): 4.42
